Data reported in article PMC9585728, “Antiviral activity and mechanism of the antifungal drug, anidulafungin, suggesting its potential to promote treatment of viral diseases” (BMC Medicine, 2022).
Several values for one entry are separate records, joined by “and”; a condition that tells them apart may be missing. Identical values can stand only once. Entries after “also recorded” stand apart in the source; their conditions may differ. Starred links: 1 amine or outer side, 2 acyl side, 3 side chain; linkers in the order of their positions; H or OH if unused. Positions of bridges follow the written chain, without caps; N, C: chain ends. Non-standard residues stand in square brackets, D forms with d. Residues, ends and D or L forms follow the SMILES beside them. *: point of attachment. hTyr(3S-OH,4S-OH,3'-OSO3H) = N[C@H](C(=O)O)[C@H](O)[C@@H](O)c1ccc(O)c(OS(=O)(=O)O)c1; pTerphenylCO(4''-OnC5H11) = CCCCCOc1ccc(-c2ccc(-c3ccc(C(=O)*)cc3)cc2)cc1; Orn(4R-OH,5R-OH) = O=C([C@H](C[C@@H](O)[C@@H](O)N[*:3])N[*:1])[*:2]; hTyr(3S-OH,4S-OH) = N[C@H](C(=O)O)[C@H](O)[C@@H](O)c1ccc(O)cc1; Pro(3S-OH,4S-Me) = C[C@H]1CN[C@H](C(=O)O)[C@H]1O; X1 = CCCCCOc1ccc(-c2cc(-c3ccc(C(=O)*)cc3)no2)cc1; Gln(3R-OH) = NC(=O)C[C@@H](O)[C@H](N)C(=O)O; Hyp = O=C(O)[C@@H]1C[C@@H](O)CN1

Assays:
[1] = tested on: SFTSV; test: microbe, parasite or virus in culture; format: cell-based, severe fever with thrombocytopenia syndrome virus
[2] = in vitro; settings: African green monkey
[3] = tested on: SFTSV; test: microbe, parasite or virus in culture; format: cell-based, severe fever with thrombocytopenia syndrome virus; settings: for IC50 / IC90: Severe fever with thrombocytopenia syndrome virus, Vero, 24 h
[4] = tested on: SFTSV; format: cell-based, severe fever with thrombocytopenia syndrome virus
[5] = tested on: DENV; settings: inhibition of DENV infection; cited from earlier work
[6] = tested on: CCHFV; test: microbe, parasite or virus in culture; format: cell-based, Crimean-Congo hemorrhagic fever virus
[7] = tested on: SARS-CoV-2; test: microbe, parasite or virus in culture; format: cell-based, severe acute respiratory syndrome coronavirus 2
[8] = tested on: SFTSV; format: cell-based, severe fever with thrombocytopenia syndrome virus; remark: listed apart in the source
[9] = tested on: SFTSV; format: cell-based, severe fever with thrombocytopenia syndrome virus; remark: listed apart in the source
[10] = tested on: ZIKV; test: microbe, parasite or virus in culture; format: cell-based, Zika virus
[11] = tested on: HRTV; test: microbe, parasite or virus in culture; format: cell-based, Heartland virus
[12] = tested on: SFTSV; format: cell-based, severe fever with thrombocytopenia syndrome virus; remark: listed apart in the source
[13] = tested on: GTV; test: microbe, parasite or virus in culture; format: cell-based, Guertu virus
[14] = tested on: SFTSV; design: species or system A129 mice; settings: mouse, in vivo
[15] = tested on: HSV-1; test: microbe, parasite or virus in culture; format: cell-based, herpes simplex virus 1
[16] = tested on: SFTSV; format: cell-based, severe fever with thrombocytopenia syndrome virus; settings: pH 5
[17] = Orthonairovirus haemorrhagiae, Vero
[18] = Severe acute respiratory syndrome coronavirus 2, Vero

SMILES: Oc1ccc2ccccc2c1SSc1c(O)ccc2ccccc12 [IPA3, p21-activated kinase inhibitor III]
- mean inhibition rate of SFTSV infection [1]: 43.22%

SMILES: C[C@@H]1[C@H](O)[C@@H](C)/C=C/C=C/CC/C=C/C=C/C=C/C=C/C(O[C@H]2O[C@H](C)[C@@H](O)[C@H](N)[C@@H]2O)CC2O[C@](O)(CC(O)C(O)CCC(O)CC(O)CC(O)CC(=O)O[C@H]1C)CC(O)C2C(=O)O (some centres unmarked) [nystatin]
- mean inhibition rate of SFTSV infection [1]: 8.67%

SMILES: COc1cccc(-c2ccc(NC(=O)C3=C(C(=O)O)CCC3)c(F)c2)c1 [Vidofludimus]
- CC50 [2]: > 100 µM
- SI [3]: >10
- IC50 [3]: 6.07 µM
- IC90 [3]: 14.6 µM

SMILES: O=C1C(O)=C([C@H]2CC[C@H](c3ccc(Cl)cc3)CC2)C(=O)c2ccccc21 [Atovaqone, Atovaquone]
- CC50 [2]: > 100 µM
- SI [3]: >10
- IC50 [3]: 5.06 µM
- IC90 [3]: 10.1 µM

SMILES: CN(C)CCCN1c2ccccc2Sc2ccc(Cl)cc21 [CPZ, chlorpromazine]
- inhibition at 35 µM ([1]; Severe fever with thrombocytopenia syndrome virus, Vero, read-out: mean inhibition rate of SFTSV infection): 46.1%

SMILES: COc1c(C)c2c(c(O)c1C/C=C(\C)CCC(=O)O)C(=O)OC2 [Mycophenolic acid]
- CC50 [2]: > 100 µM
- SI [3]: >10
- IC50 [3]: 0.47 µM
- IC90 [3]: 4.75 µM

SMILES: CC(=O)Oc1ccccc1C(=O)Nc1ncc([N+](=O)[O-])s1 [Nitazoxanide]
- CC50 [2]: > 100 µM
- IC50 [3]: 11.1 µM
- IC90 [3]: 25.3 µM

SMILES: CC[C@H](C)C[C@H](C)CCCCCCCCC(=O)N[C@H]1C[C@@H](O)[C@@H](NCCN)NC(=O)[C@@H]2[C@@H](O)CCN2C(=O)[C@H]([C@H](O)CCN)NC(=O)[C@H]([C@H](O)[C@@H](O)c2ccc(O)cc2)NC(=O)[C@@H]2C[C@@H](O)CN2C(=O)[C@H]([C@@H](C)O)NC1=O [caspofungin]
- inhibitory effect on SFTSV infection during the entry process [4]: limited effect
- IC50 [5]: 20.8 µM

SMILES: CCCCCOc1ccc(-c2cc(-c3ccc(C(=O)N[C@H]4C[C@@H](O)[C@@H](O)NC(=O)[C@@H]5[C@@H](O)[C@@H](C)CN5C(=O)[C@H]([C@H](O)CC(N)=O)NC(=O)[C@H]([C@H](O)[C@@H](O)c5ccc(O)c(OS(=O)(=O)O)c5)NC(=O)[C@@H]5C[C@@H](O)CN5C(=O)[C@H]([C@@H](C)O)NC4=O)cc3)no2)cc1 [Micafungin, micafungin] (X1-[Orn(4R-OH,5R-OH)]T[Hyp][hTyr(3S-OH,4S-OH,3'-OSO3H)][Gln(3R-OH)][Pro(3S-OH,4S-Me)]; lactam 1-C)
- inhibitory effect on SFTSV infection during the entry process [4]: less effective than that exerted by anidulafungin
- IC50 [5]: 10.2 µM

SMILES: COc1c(C)c2c(c(O)c1C/C=C(\C)CCC(=O)OCCN1CCOCC1)C(=O)OC2 [Mycophenolate mofetil]
- CC50 [2]: > 100 µM
- SI [3]: >10
- IC50 [3]: 0.57 µM
- IC90 [3]: 1.52 µM

SMILES: CCCCCOc1ccc(-c2ccc(-c3ccc(C(=O)N[C@H]4C[C@@H](O)[C@@H](O)NC(=O)[C@@H]5[C@@H](O)[C@@H](C)CN5C(=O)[C@H]([C@@H](C)O)NC(=O)[C@H]([C@H](O)[C@@H](O)c5ccc(O)cc5)NC(=O)[C@@H]5C[C@@H](O)CN5C(=O)[C@H]([C@@H](C)O)NC4=O)cc3)cc2)cc1 [Anidulafungin, anidulafungin] ({pTerphenylCO(4''-OnC5H11)}-[Orn(4R-OH,5R-OH)]T[Hyp][hTyr(3S-OH,4S-OH)]T[Pro(3S-OH,4S-Me)]; lactam 1-C)
- CC50 [2]: 41.7 µM
- SI [6]: 3.86
- IC50 [6, 17]: 10.8 µM
- IC90 [6, 17]: 24.2 µM
- suppression of the entry of SFTSV strain HBMC5 [4]: as efficiently as the strain WCH
- SI [7]: 7.59
- IC50 [7, 18]: 5.49 µM
- IC90 [7, 18]: 8.55 µM
- efficacy of virus binding to cells versus vehicle [8]: did not have a significant difference
- number of intracellular viral RNA copies (virus internalization) [9]: significantly decreased
- SI [3]: 13.80
- IC50 [3]: 3.02 µM
- IC90 [3]: 12.4 µM
- SI [10]: 9.54
- IC50 ([10]; Zika virus, Vero): 4.37 µM
- IC90 ([10]; Zika virus, Vero): 6.44 µM
- SI [11]: 8.35
- IC50 ([11]; Heartland virus, Vero): 4.99 µM
- IC90 ([11]; Heartland virus, Vero): 9.29 µM
- reduction of intracellular viral RNA copies relative to the control [12]: over 10 times
- SI [13]: 7.53
- IC50 ([13]; Guertu virus, Vero): 5.54 µM
- IC90 ([13]; Guertu virus, Vero): 9.62 µM
- IC50 [5]: 3.24 µM
- PLT (median, IQR) [14]: 1054.5 (993.25, 1094) ×10^9/L and 950 (494.5, 1062.75) ×10^9/L and 1141 (1050, 1191) ×10^9/L
- WBC (median, IQR) [14]: 4.75 (4.35, 5.465) ×10^9/L and 4.72 (4.31, 6.195) ×10^9/L and 5.76 (5.28, 6.04) ×10^9/L
- body weight [14]: maintained; also recorded: slight decrease
- clinical signs of illness onset [14]: did not show typical clinical signs of illness onset
- histopathological damage in the lung, H&E [14]: significantly ameliorated
- kidney lesions (renal tubulointerstitial hemorrhaging, edemas), H&E [14]: slight
- liver lesion (ballooning degeneration of hepatocytes), H&E [14]: significantly attenuated
- survival rate [14]: 66.7% and 50.0%
- SI [15]: 6.12
- IC50 ([15]; Human alphaherpesvirus 1, Vero): 6.81 µM
- IC90 ([15]; Human alphaherpesvirus 1, Vero): 9.12 µM
- number and size of syncytia (fusion ability) [16]: decreased
